Measurements reported in patent publication US12325880B2, “Identification of PDE3 modulator responsive cancers” (THE BROAD INSTITUTE, INC., priority 2018, dated 2025).

Columns and labels:
Format in all cases: cell-based
PDE3A-SLFN12 complex = biological target: T1, PDE3A-SLFN12 complex (Homo sapiens, UniProt Q14432); assay: PDE3A immunoprecipitation / immunoblot for PDE3A-SLFN12 complex formation in HeLa cells; conditions: for complex formation between PDE3A and FLAG-tagged SLFN12 with AIP knocked out (FIG. 8B) / complex formation between PDE3A and FLAG-tagged SLFN12 (FIG. 8B): HeLa cells, anti-PDE3A pull down, 10 μM compound; for complex formation between PDE3A and FLAG-tagged SLFN12 with AIP knocked out (FIG. 8B): AIP Crispr knockout (KO sg2, KO sg3)
T1 construct: immunoprecipitated endogenous PDE3A; endogenous in cells; host or cells: HeLa cells, parental or AIP CRISPR knockout; PDE3A is endogenous; SLFN12 is ectopically expressed
Protocol: Because decreased PDE3A protein expression could impact DNMDP-induced PDE3A-SLFN12 complex formation, the effects of AIP knockout on this complex formation were also measured. As there is no good antibody for SLFN12 protein, we ectopically expressed V5-tagged SLFN12 in parental or AIP-knockout HeLa cells, immunoprecipitated endogenous PDE3A, and assessed whether V5-SLFN12 could be detected in the immunoprecipatites. Cells were plated in 10 cm petri dishes and collected at 50-90% confluence. For PDE3A immunoblotting in biomarker positive cells and in AIP KO cells, cells were seeded in 15 cm plates at similar density as in viability assays with a vessel scaling factor of 5000, e.g., 500 cells per well was scaled to 10^6 cells per 10 cm plate or 2.5×10^6 cells per 15 cm plate, and then cultured for 72 hours before collection. Cell pellets were lysed at 4° C. for 20 minutes in modified RIPA buffer (150 mM NaCl, 10% glycerol, 50 mM Tris-Cl pH 8.0, 50 mM MgCl2, 1% NP-40) supplemented with EDTA-free protease inhibitors (Sigma-Aldrich 4693159001) and PhosSTOP phosphatase inhibitors (Sigma-Aldrich 4906837001). Lysates were clarified by centrifugation at 13,000 rpm×10 min at 4° C. and quantified using BCA protein assays (Thermo Fisher Scientific 23225). Clarified lysates were resolved on 4-12% Bis-Tris PAGE gels, transferred to nitrocellulose membranes (Thermo Fisher Scientific IB23001) and immunoblotted with primary antibodies against PDE3A (Bethyl 302-740A, 1:2000), V5 (Life Technologies R96205 at 1:5,000), AIP (Thermo Fisher Scientific MA3-16515 at 1:2000), Vinculin (Sigma-Aldrich V9264 at 1:5,000), GAPDH (Cell Signaling Technology 2118 at 1:2000) and secondary antibodies from LiCOR Biosciences (92632210 and 926068021, each at 1:10,000). Blots were washed and imaged using a LiCOR Odyssey infrared imager, and fluorescent signals quantified using the Image Studio software provided by the LiCOR manufacturer.

HeLa cells = assay: 72 h Cell Titer Glo viability, HeLa; set-up: AUC: unit not given beside the values
Protocol: (§1) To measure cancer cell death in response to 6-(4-(diethylamino)-3-nitrophenyl)-5-methyl-4,5-dihydropyridazin-3(2H)-one (DN/DP) treatment, cells were plated in 384w assay plates at the following cell density per well: 500 cells of HeLa (DMEM), A2058 (DMEM), HMCB (EMEM), IGR37 (DMEM), NCIH1734 (RPMI), 750 cells of CAL51 (DMEM), COL0741 (RPMI), DKMG (RPMI), GB1 (EMEM), HEL (RPMI), HEL9217 (RPMI), JHUEM1 (DMEM+F12), L3.3 (RPMI) and TE4 (RPMI), HCC15 (RPMI), UACC257 (RPMI), 1000 cells for HUT78 (IMEM), NCIH1563 (RPMI), NCIH2122 (RPMI), NCIH2172 (RPMI), RVH421 (RPMI) and SKMEL3 (McCoy's 5A), 1500 cells for C32 (EMEM), HS578T (DMEM) and JHOM1 (DMEM+F12). Cells were incubated at 37° C. overnight and then treated with a DNMDP dose dilution series using an HP D300 digital dispenser. After 72 hours, the viability of cells in each well were measured by Cell Titer Glo (Promega G755B and G756B). Percent viability values were determined using the values from untreated wells and AUC values were calculated using a 4-parameter fit. DNMDP was purchased from Life Chemicals (F1638-0042) and trequinsin was purchased from Sigma-Aldrich (T2057).
(§2) PDE3A CRISPR KO cells (sgRNA #2) were generated according to de Waal et al, 2016 (2), hereby incorporated by reference in its entirety. CRISPR target sites for PDE3B and AIP were identified using the CHOPCHOP CRISPR Design Tool (chopchop.cbu.uib.no). For cloning of sgRNAs, forward and reverse oligos were annealed, phosphorylated and ligated into a BsmBI-digested lentiCRISPRv2 vector. Lentivirus carrying each guide construct was packaged as described above and used to infect target cells. Transduced target cells were selected using 1 μg/ml puromycin and passaged for 7 days before use.

[1] = test system: COLO741 melanoma cell line; assay: 72 h Cell Titer Glo viability, COLO741; set-up: unit not given beside the values; conditions: 72 h Cell Titer Glo dose response, AUC on a scale from 0-4
Protocol: as §1

C32 melanoma cell line = assay: 72 h Cell Titer Glo viability, C32; set-up: AUC: unit not given beside the values
Protocol: as §1

IGR37 melanoma cell line = assay: 72 h Cell Titer Glo viability, IGR37; set-up: unit not given beside the values; conditions: 72 h Cell Titer Glo dose response, AUC on a scale from 0-4
Protocol: as §1

[2] = test system: UACC257 melanoma cell line; assay: 72 h Cell Titer Glo viability, UACC257; set-up: AUC: unit not given beside the values
Protocol: as §1

[3] = test system: SKMEL3 melanoma cell line; assay: 72 h Cell Titer Glo viability, SKMEL3; set-up: unit not given beside the values; conditions: 72 h Cell Titer Glo dose response, AUC on a scale from 0-4
Protocol: as §1

[4] = test system: A2058 and SKMEL3 cells with CRISPR KO of SLFN12; assay: 72 h Cell Titer-Glo survival of cells with CRISPR KO of SLFN12; conditions: CRISPR KO of SLFN12 (sg4)
Protocol: A2058 and SKMEL3 are representative melanoma cell lines. Survival is measured with a 72 h Cell Titer-Glo assay and CRISPR was performed with sg4, SLFN12 CRISPR guide RNA #4.
as §2
FIG. 3A illustrates the survival of cells in the presence of DNMDP that have had CRISPR knockout of SLFN12. FIG. 3B illustrates the survival of cells in the presence of DNMDP that have had CRISPR knockout of PDE3A (with and without ectopic expression of PDE3B). […] The survival in FIGS. 3A and 3B was measured with a 72 h Cell Titer-Glo assay and CRISPR was performed with sg4, SLNF12 CRISPR guide RNA #4.

HMCB melanoma cell line = assay: 72 h Cell Titer Glo viability, HMCB; set-up: unit not given beside the values; conditions: 72 h Cell Titer Glo dose response, AUC on a scale from 0-4
Protocol: as §1

A2058 melanoma cell line = assay: 72 h Cell Titer Glo viability, A2058; set-up: unit not given beside the values; conditions: 72 h Cell Titer Glo dose response, AUC on a scale from 0-4
Protocol: as §1
PDE3A CRISPR KO cells (sgRNA #2) were generated according to de Waal et al, 2016 (2), hereby incorporated by reference in its entirety. CRISPR target sites for PDE3B and AIP were identified using the CHOPCHOP CRISPR Design Tool (chopchop.cbu.uib.no). […]

[5] = test system: RVH421 melanoma cell line; assay: 72 h Cell Titer Glo viability, RVH421
Protocol: as §1

T1 sequence (Q14432 whole entry): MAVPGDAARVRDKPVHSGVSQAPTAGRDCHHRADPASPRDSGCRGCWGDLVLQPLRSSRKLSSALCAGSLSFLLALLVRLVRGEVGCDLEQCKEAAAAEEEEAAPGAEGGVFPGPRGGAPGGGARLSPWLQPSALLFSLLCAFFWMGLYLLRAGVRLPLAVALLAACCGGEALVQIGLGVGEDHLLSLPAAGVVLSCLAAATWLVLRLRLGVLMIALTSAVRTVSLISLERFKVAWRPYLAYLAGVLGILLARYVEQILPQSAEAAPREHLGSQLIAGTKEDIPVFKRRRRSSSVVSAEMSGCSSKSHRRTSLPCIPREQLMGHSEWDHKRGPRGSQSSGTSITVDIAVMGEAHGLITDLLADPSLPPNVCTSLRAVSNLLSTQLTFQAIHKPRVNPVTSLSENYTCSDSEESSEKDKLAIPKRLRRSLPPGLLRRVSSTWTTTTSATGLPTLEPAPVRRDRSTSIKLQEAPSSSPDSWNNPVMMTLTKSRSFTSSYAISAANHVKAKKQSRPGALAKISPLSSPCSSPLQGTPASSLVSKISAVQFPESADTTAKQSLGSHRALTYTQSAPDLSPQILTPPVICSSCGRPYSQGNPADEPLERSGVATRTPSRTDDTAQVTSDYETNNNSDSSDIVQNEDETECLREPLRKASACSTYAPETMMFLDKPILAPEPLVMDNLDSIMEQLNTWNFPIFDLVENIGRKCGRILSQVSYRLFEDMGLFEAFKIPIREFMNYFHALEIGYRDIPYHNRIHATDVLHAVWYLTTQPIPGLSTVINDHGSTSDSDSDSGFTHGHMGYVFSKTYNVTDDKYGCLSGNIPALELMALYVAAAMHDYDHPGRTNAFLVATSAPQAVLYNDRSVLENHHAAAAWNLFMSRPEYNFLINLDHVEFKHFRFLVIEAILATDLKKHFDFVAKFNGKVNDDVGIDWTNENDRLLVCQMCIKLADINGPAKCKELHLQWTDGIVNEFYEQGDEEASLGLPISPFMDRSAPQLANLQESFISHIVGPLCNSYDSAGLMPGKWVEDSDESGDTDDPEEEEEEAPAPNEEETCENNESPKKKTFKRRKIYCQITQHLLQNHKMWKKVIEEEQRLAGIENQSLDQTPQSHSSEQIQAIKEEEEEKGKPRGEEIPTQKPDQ
T1 sequence (Q8IYM2 whole entry partner): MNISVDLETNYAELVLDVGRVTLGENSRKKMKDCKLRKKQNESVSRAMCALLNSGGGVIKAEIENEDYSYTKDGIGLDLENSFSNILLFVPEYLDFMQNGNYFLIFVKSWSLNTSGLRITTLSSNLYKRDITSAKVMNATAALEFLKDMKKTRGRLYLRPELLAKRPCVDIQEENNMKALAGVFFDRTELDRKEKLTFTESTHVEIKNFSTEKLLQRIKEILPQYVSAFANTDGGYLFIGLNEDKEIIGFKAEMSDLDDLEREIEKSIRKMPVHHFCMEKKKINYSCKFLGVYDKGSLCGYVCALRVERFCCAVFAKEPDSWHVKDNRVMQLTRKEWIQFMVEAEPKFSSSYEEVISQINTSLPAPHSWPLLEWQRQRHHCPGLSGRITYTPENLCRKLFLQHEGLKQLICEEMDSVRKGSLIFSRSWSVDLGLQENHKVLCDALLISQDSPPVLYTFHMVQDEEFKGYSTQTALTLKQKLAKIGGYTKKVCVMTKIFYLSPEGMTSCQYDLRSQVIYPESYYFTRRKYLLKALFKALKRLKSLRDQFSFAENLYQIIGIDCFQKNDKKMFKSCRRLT

complex formation between PDE3A and FLAG-tagged SLFN12 with AIP knocked out (FIG. 8B) (PDE3A-SLFN12 complex)	complex formation between PDE3A and FLAG-tagged SLFN12 (FIG. 8B) (PDE3A-SLFN12 complex)	PDE3A-SLFN12 complex formation after AIP knockout (FIG. 7) (PDE3A-SLFN12 complex; AIP-knockout HeLa cells, V5-tagged SLFN12, PDE3A immunoprecipitates, 10 μM)	Compound	cancer cell killing in cells lacking AIP (FIG. 8A) (HeLa cells; HeLa cells having an AIP knock out (KOsg2, KOsg3))	cervical cancer cell viability (FIG. 8A) (HeLa cells; HeLa cells, increasing concentrations)	AUC [1]	AUC (C32 melanoma cell line; C32 (melanoma), 72 h Cell Titer Glo dose response, AUC on a scale from 0-4)	sensitivity of cell line (dose response, FIG. 2A) (C32 melanoma cell line; C32 cells, 72 h Cell Titer-Glo)	AUC (IGR37 melanoma cell line)	AUC ([2]; UACC257 (melanoma, lacks AIP expression), 72 h Cell Titer Glo dose response, AUC on a scale from 0-4)	sensitivity of cell line (dose response, FIG. 2A) ([2]; UACC257 cells, 72 h Cell Titer-Glo)	AUC [3]	sensitivity after SLFN12 knockout (FIG. 3A) [4]	AUC (HMCB melanoma cell line)	AUC (HeLa cells; HeLa (cervical), 72 h Cell Titer Glo dose response, AUC on a scale from 0-4)	cell response after AIP knockout (FIG. 6A) (HeLa cells; HeLa cells, AIP CRISPR knockout with independent gRNAs, 72-hour Cell Titer-Glo)	sensitivity in PDE3A knockout cells with ectopic PDE3B expression (FIG. 3B) (HeLa cells; PDE3A knockout HeLa cells, ectopic expression of PDE3B, 72 h Cell Titer-Glo)	AUC (A2058 melanoma cell line)	AUC ([5]; RVH421 (melanoma, PDE3B/SLFN12 biomarker-positive), 72 h Cell Titer Glo dose response, AUC on a scale from 0-4)	sensitivity of cell line (dose response, FIG. 2A) ([5]; RVH421 cells, 72 h Cell Titer-Glo)
not observed	induced		C[C@@H]1OC(=O)NN=C1c1ccc(-c2ccc(F)cc2)c(C(F)(F)F)c1 [Compound X, (6S)-5-[4′-fluoro-2-(trifluoromethyl)biphenyl-4-yl]-6-methyl-3,6-dihydro-2H-1,3,4-oxadiazin-2-one]	no cancer cell killing was observed	reduced at increasing concentrations															
not observed	induced	completely abolished	CCN(CC)c1ccc(C2=NNC(=O)CC2C)cc1[N+](=O)[O-] (stereo not shown) [DNMDP, 6-(4-(diethylamino)-3-nitrophenyl)-5-methyl-4,5-dihydropyridazin-3(2H)-one]			1.19	3.13	only partially sensitive	1.17	4.00	completely insensitive	1.74	SLFN12 knockout abrogates all measured sensitivity	1.85	0.36	AIP knockout eliminates HeLa cell response	support DNMDP sensitivity	2.11	3.02	only partially sensitive
